# Measurements taken from patent US6469027B1, “N-methyl-D-aspartate (NMDA) receptor blockers for the prevention of atherosclerosis” (The Board of Regents of the University of Nebraska, priority 1996, dated 2002).
# Assays:
# protein kinase C = experiment: Distribution of protein kinase C activity in N-VSMC fractions; format: cell-based, chicken; conditions: 100 μM H[cys] for 60 min
# Protocol: FIGS. 6A-6C show the distribution of protein kinase C in the presence of H[cys], TPA and TGF β1. […] Cells were harvested and separated into cytosol membrane particulate and nuclear fractions, and PKC activity measured as described in Material and Methods. The data are reported as the mean ± standard error of eight separate determinations. (B) Immunolocalization of PKC epsilon in M- and N-VSMC. Cell cultures were plated and grown for three days prior to immunohistochemistry staining of PKC epsilon in the N-VSM (bottom) contrasted with the low levels of expression of the enzyme in M-VSMC (top). The staining can be seen in cytosol, nucleus and associated with intracellular fibers. (C) Use of PKC epsilon IgG to detect enzyme in M- and N-VSMC by western blot. The C-lane represents purified recombinant PKC epsilon; M and N are samples derived from mesoderm (abdominal ) and neurocrest & (thoracic) smooth muscle cells, respectively.
# Protein kinase C activity: Protein kinase C activity was determined using a method of a previously published procedure with modifications. Wrenn, R.W. et al. (supra). […] Each of these fractions was analyzed for total PKC activity in the presence and absence of calcium chloride as described previously. […]
# [1] = test system: Rabbit aortic smooth muscle cells; experiment: Calcium uptake in rabbit aortic smooth muscle cells; format: cell-based; conditions: 10μM for 40 seconds
# Protocol: For each of the following experiments, aortic smooth muscle cells were obtained from 2-3 lb. New Zealand rabbits; these cells were cultured as described above, and evaluated for their responses to Hcy. […] This response is similar to that of the embryonic cells (see above).
# c-myb = c-myb expression in N-VSMC (RT-PCR, immunoprecipitation and western blot); format: cell-based, chicken
# Protocol: FIGS. 3A, 3B and 3C are RNA blot analyses of c-fos and c-myb mRNA isolated from N-VSMC cultures. Cultures were incubated in the absence and presence of 200μM H[cys] for 0, (lane 1); 15 min, (lane 2); 30 min, (lane 3); 45 min, (lane 4) and 60 min, (lane 5); and analyzed for c-fos expression. In FIG. 3B, the time course of c-myb MRNA induction in the presence of 200μM H[cys] for 0 h, (lane 1); 8 h, (lane 2); 16 h, (lane 3); 24 h, (lane 4). The c-fos transcripts were analyzed by northern blot and normalized to β actin expression. The amount of c-myb mRNA levels were normalized to estrogen receptor (ER) transcripts as determined by RT-PCR. […] The amount of c-myb mRNA levels were normalized to estrogen receptor (ER) transcripts as determined by RT-PCR. The amount of specific radiolabeling in the autoradiograph was quantified by scanning densitometry. The size of the c-Myb protein is 75 kilodaltons. The 75 kilodalton band is defined as c-Myb because immunoprecipitation of this protein was not detected in the presence of synthetic polypeptide [[…] encoded by sequences 1080-1133].
# FIG. 4 is a graph illustrating the analysis of c-myb synthesis in response to NMDA receptor antagonist, Mk-801 and CGS19755. Immunoprecipitation and western blotting of radiolabeled c-Myb from N-VSMC treated with 200μMH[cys] in the presence and absence of 50 μM Mk-801 or 1 mM CGS19755. Cell cultures were treated with and without H[cys] for 24 hours, extracts were immunoprecipitated with anti c-myb IgG and samples were separated by SDS-PAGE gels and western blotted. The amount of specific radiolabeling in the autoradiograph was quantified by scanning densitometry. The size of the c-Myb protein is 75 kilodaltons. The 75 kilodalton band is defined as c-Myb because immunoprecipitation of this protein was not detected in the presence of synthetic polypeptide [I13-[…] encoded by sequences 1080-1133].
# RNA Blot Analysis: Total RNA was isolated from VSMC derived from thoracic and abdominal aorta by homogenization, and lysis with guanidinium isothiocyanate was followed by phenol-chloroform extraction. Ten micrograms of total RNA per lane was separated in a 1.5% agarose-formaldehyde gel, and the RNA was transferred by capillary transfer to a 0.45 μm nylon membrane. Filters were hybridized as previously with cDNAs labeled with [^32P]deoxycytidine5′-triphosphate to specific activities of approximately 2×10^9 cpm/μg using a random prime labeling kit (Boehringer Mannheim Biochemicals, Indianapolis, Ind.). The probes included chicken c-fos, Bactin, estrogen receptor (ER) and c myb.
# Reverse Transcriptase-Polymerase Chain Reaction: Reverse transcription of 4 to 10,000 nanograms (ng) of RNA using 10 picomoles (pm) of hexamer primers was performed for 90 minutes (min) at 37° C. using 200 units superscript reverse transcriptase (Gibco BRL), in 50 mM Tris, pH, 8.2, 75 Mm KC1, 3 mM MgCl2, 10 mM dithiothreitol (DTT), 1 unit/μ1 RNasin (Promega), and 1 mM each of DATP, dCTP, dGTP, and dTTP. The samples were heated at 95° C. for 5 min to terminate the reverse transcription. The resulting cDNA was treated with 1 unit of […] at 37° C. for 20 min. A 5% fraction of the cDNA was subjected to PCR using c-myb upstream (5′ggTCCTTTgAAgATgCTgCC3′) and downstream(5′[…]gAgTCCgggTTg3′) primers; estrogen receptor (ER) (5′ggACTgCCAgCTgCCgATCTT3′) and (5′CTCACgAATgTggCgCCT3′) primers; β actin (5′AAgAggTAATCCTgACCCCTgAA3′) and (5′ACCCTgACCATCAgggAgTTCA3′) primers. PCR was performed using 0.25 μM of each primer, 3 μM cDNA, 0.2 mM of each deoxynucleotide triphosphate, 75 mM KC1, 1.5 mM MgCl2 and 0.5 unit Taq polymerase (Perkin Elmer; Cetus) in 10 mM Tris-HC1, pH 8.3 with total volume of 100 μl. […] PCR products were analyzed by electrophoresis in 1.5% agarose gels stained with ethidium bromide. PCR amplifications of all target templates and controls were run in parallel or on the same sample. […]
structure (smiles),measurement,setting,value
N[C@@H](CCS)C(=O)O [homocysteine],distribution of PKC activity,protein kinase C,significant increase in membrane-associated PKC
same,calcium flux,[1],significant calcium flux
same,c-myb mRNA transcripts induced,c-myb; 200 μM homocysteine,6 fold
same,cMyb protein,c-myb; 30 and 100 μM,dose dependent increase
same,c-myb induction,c-myb; neural crest derived smooth muscle cells,induced
